According to PMC7408964, “Efficient Therapeutic Delivery by a Novel Cell-Penetrating Peptide Derived from Acinus” (Cancers, 2020):
Where no end group is shown, it is not given here.

Tests used:
[1] = test system: non-malignant CD4+ T-cells, CD3+CD4+Vβ− cells; assay: Ex vivo cell death in Sézary patients' PBMC, 7-AAD flow cytometry, non-malignant CD4+ T-cells; assay type: cell-based, human; details: increasing concentrations, 4 h, 37 °C, PBMC of three patients
Source text: (§1) SS diagnosis was established on recognized international clinical, histological, and biological criteria. Blood from SS patients with more than 90% of malignant CD4^+ T cells (identified by their TCR-Vβ rearrangement) was collected for the present study, which was approved by the institutional ethics committee (Saint Louis Hospital, Paris. Protocol no. 2011-oct.12735). Peripheral blood mononuclear cells (PBMC) were isolated from heparinized venous blood by density gradient centrifugation over lymphocytes separating medium (LSM; PAA Laboratories, Les Mureaux, France). The Sézary cell line HUT78 was amplified as previously described and cultured in RPMI 1640 supplemented with 2 mM L-glutamine, 1% penicillin-streptomycin (Invitrogen) and 10% heat-inactivated fetal calf serum (Life Technologies). All other cell lines were cultured in DMEM supplemented with 2 mM L-glutamine, 1% penicillin-streptomycin (Invitrogen) and 10% heat-inactivated fetal calf serum (Life Technologies).
(§2) PBMC exposed or not to RT33 or RT33 DR were processed for flow cytometry to assess cell death. Cells were labelled with a mix of anti-TCR-Vβ-FITC, -CD3-PE, and -CD4-PE-Cy7 mAbs (Beckman Coulter). Detection of apoptotic cells was performed using 7 AAD (BD Biosciences). Cells were analyzed on a CytoFlex cytometer (Beckman Coulter) and data treated with FlowJo software.

non T-cells, CD3− cells = assay: Ex vivo cell death in Sézary patients' PBMC, 7-AAD flow cytometry, non T-cells; assay type: cell-based, human; details: increasing concentrations, 4 h, 37 °C, PBMC of three patients
Source text: as §1, §2

[2] = test system: normal (HaCat, MRC-5) cells; assay: Cell viability, MTT assay, normal cells; assay type: cell-based; details: increasing concentrations, 20 h, n = 3
Protocol: (§3) Cells survival was assessed with the CellTiter 96® Aqueous One Solution Cell Proliferation Assay kit (Promega, Madison, WI, USA).

[3] = test system: HUT78 Sézary cells xenograft; assay: Sub-cutaneous xenograft mouse model for the Sézary syndrome; assay type: in vivo, NOD/SCID gamma (NSG) mice; details: 5 mg/kg daily i.p.
Source text: Animal experiments were approved by The University Board Ethics Committee for Experimental Animal Studies (#2303.01). Xenograft tumors were obtained by subcutaneous injection of 10^6 HUT78 cells in the right flank of 8-week-old female NOD-SCID-gamma (NSG) mice, bred and housed under pathogen-free conditions at our animal facility (IUH, Saint Louis Hospital, Paris, France). Treatment started after randomization when tumors were visible and consisted of daily intraperitoneal (i.p.) injection of normal saline or RT33 or RT33 DR in normal saline (n = 5 per group). Tumor volume was measured every other day and calculated as: long axis × short axis^2 × 0.5. Animals were euthanized after 21 days of treatment or when tumor size reached the ethical end point and visceral organs were excised for a gross pathological examination. Tumors were fixed in 4% neutral buffered formalin and embedded in paraffin. Sections (4 µm) were stained with hematoxylin-eosin (H&E) and subjected to microscopic analysis and image recording. Histological analysis was performed at the HistIM facility of Cochin Institute (Paris, France). Slides were imaged using a Lamina multilabel slide scanner (Perkin Elmer).

HUT78 Sézary cells = assay: Cell viability, MTT assay, HUT78 cells (with or without cell death inhibitors); assay type: cell-based; details: 20 h; for effect of pan-caspase inhibitor zVAD-fmk on peptide-induced cytotoxicity: increasing peptide concentrations, 50 μM zVAD-fmk, MTT, n = 3
Protocol: as §3

Row | Substance | cell death / viability of non-malignant CD4+ T-cells (7-AAD+) [1] | cell death / viability of non T-cells (7-AAD+) (non T-cells, CD3− cells) | cell viability of normal cells [2] | clinical symptoms during the experimental period [3] | effect of pan-caspase inhibitor zVAD-fmk on peptide-induced cytotoxicity (HUT78 Sézary cells) | cell viability, AAC-11 portion alone (HUT78 Sézary cells; 20 µM, MTT assay, n = 3 (Supplementary Figure S4))
1 | RSRSRDRRRK [hAP10] | did not induce cell death | did not induce cell death |  |  |  | 
2 | RSRSRRRRRKLQYFARGLQVYIRQLRLALQGKT [RT33DR] | neither peptide decreased cell viability | neither peptide decreased cell viability | sparing the normal cells tested | No obvious clinical symptoms | did not block | 
3 | RSRSRRRRRK [hAP10DR] | did not induce cell death | did not induce cell death |  |  |  | 
4 | AAC-11 specific portion: peptide comprising AAC-11 residues 377 to 399, without CPP (LQYFARGLQVYIRQLRLALQGKT; UniProt Q9BZZ5 377-399, looked up, fragment) [reference compound] |  |  |  |  |  | nor the AAC-11 specific portion alone (Supplementary Figure S4) decreased cell viability
5 | RSRSRDRRRKLQYFARGLQVYIRQLRLALQGKT [RT33] | neither peptide decreased cell viability | neither peptide decreased cell viability | sparing the normal cells tested | No obvious clinical symptoms | did not block | 
